Assay [1] deals with hIgG. Briefly: ELISA of soluble fractions of native and mutated WW domains against hIgG. Type of assay: binding. The settings on record: human IgG, soluble fraction, E6 detected with anti-HA-HRP, E6_M2 and Rosetta extract with anti-His-HRP, ABTS. As to the method:
The soluble fraction of 100 mL cultures (100 μL) was used for ELISA against hIgG, as described in ([Dias et al., 2025]). Briefly, the target hIgG was immobilized (1 μg/well) in 0.1 M Sodium Bicarbonate pH 8.6 in Immuno Maxisorp ELISA plates (Thermo Fisher), overnight at 4 °C. In the next day, the unbound hIgG was removed, and the wells washed with PBS1x. To the wells was added the blocking solution – 5% (v/v) Soya Milk in PBS 1x and incubated for 1 h at room temperature. The wells were washed and incubated with 100 µL of soluble fraction (∼0.065 mg/mL total protein) at room temperature for 2 h.
The unbound WW domains were removed, and the wells were washed using 4 times PBS1x-0.05% Tween 20 and 1 time with PBS1x. For detection was used 1:1,000 anti-His-HRP conjugated antibody (MA1-21315-HRP, Invitrogen) in 1% (v/v) Soya Milk in PBS1x and incubated for 1 h at RT, after that the wells were washed with 5x PBS1x. The detection occurred with ABTS (2,2′-azino-bis(3-ethylbenzothiazoline-6-sulfonic acid) ready solution (11684302001, Roche), which was incubated in the dark for 1 h at 37 °C. Finally, the results were analysed in a microplate reader (Tecan) with appropriate filter at Abs405nm.
Figure S6 – Production and signal characterization of mutated versions. A – Tris-Tricine gels after cell lysis of the WW prototype sequence (WWp, band at ~8KDa), mutated WWp5_4 scaffold (WWp5_4_M2, band at ~8 kDa) and mutated E6 (E6_M2, band at ~ 12kDa). Samples were normalized 90µg total protein/lane. M - Precision Plus Protein™ Dual Xtra Prestained, Biorad; SF – soluble fraction; ISF – insoluble fraction. B1, B2, and B3 indicate production batchs in 1L culture, except for WWp B1 – 100 mL, WWp_5_4 B2 – 900 mL. Stained with Simplyblue. […] The detection of the clones was made with anti-His conjugated antibody with HRP and detected with ABTS as substrate.
Figure S7 – Comparison between ELISA signal of E6 versus E6_M2. […] The expression levels were detected by direct coating of the microplate well with the soluble fraction of the extract. […] All were detected with ABTS as substrate.

Assay [2] deals with human IgG. Put plainly: Microscale Thermophoresis (MST) with IgG-FITC. The class given is binding. The settings on record: E6, IgG-FITC 50 nM, E6 23.5 µM to 0.7 nM, 50 mM MOPS 0.05% (v/v) Tween-20 pH 7, 25 °C, n = 4. Here is the method:
For MST assays of E6, IgG was conjugated with fluoresceine isothiocyanate (FITC) using standard protocols. The conjugated IgG-FITC was used at a fixed concentration of 50nM and 16 serial dilutions of E6 protein (from 23.5 µM to 0.7 nM) were made in 50 mM MOPS 0.05% (v/v) Tween-20 pH 7.
For MST assays of E6_M2_T2, the target was hIgG-FITC (F9636, Sigma) at a constant concentration of 25 nM. For the E6_M2_T2 ligand, 16 samples were prepared in variable concentrations starting from 695 nM and using a serial dilution of 1:2 up to a minimum concentration of […] using PBS1x-0.05% (v/v) Tween-20 pH7.4.
Samples were transferred to a standard capillary (Monolith NT.115 Capillary, Nanotemper) with the following settings: medium MST-power, excitation power at 20%, with excitation in Nano-Blue, with thermostat at 25 °C. The signal of the samples was read in triplicates using a Monolith NT.115 (Nanotemper) and the signal was processed in the manufacturer software with FitModel: Kd and Hill. The binding parameters (KD and EC50) and were estimated automatically in the MST software.
On the technique in general: MST reads how a fluorescent partner responds to local heating, with and without ligand.

As for “SMGLPPGWDEYKT RRFKL GKTYYYNH HILS KTSTWTDPRMSS [Clone E6]”, the “binding signal relative to negative control (E. coli Rosetta extract)” value in assay [1] is 1.5 times. Moreover, the EC50 in assay [2] was found to be 146 nM. Also, the Kd in assay [2] (read-out: dissociation constant, KD) was determined as 133 ± 48 nM.

A word on the EC50: it is the concentration needed to bring the measured effect to its halfway point. Usually Kd stands for the constant that tells how readily two partners part at equilibrium.

The values above are taken from publication PMC12647017, “Discovery and optimization of a synthetic small protein domain targeting antibodies” (Frontiers in Bioengineering and Biotechnology, 2025).
